Like-named read-outs stand apart in the source and are kept apart here.
Tests used:
[1] = Saxagliptin Hydrochloride/Opadry II films, amino acid 2% w/w in dispersion, 60° C. five days; control without amine 2.73
[2] = Example 6: NFA of saxagliptin in saxagliptin/Opadry II films with amino acids (HPLC); assay type: physicochemical; details: for % NFA (as a % of saxagliptin peak): Saxagliptin/Opadry II films, amino acid 2% w/w in dispersion, sealed vials 60° C. five days, control without amine 2.63
[3] = assay type: physicochemical; details: Saxagliptin Hydrochloride/Opadry II films, amine 2% w/w in dispersion, 60° C. five days; control without amine 2.73
[4] = Example 4: NFA of saxagliptin in saxagliptin/Opadry II films with amine compounds (HPLC); assay type: physicochemical; details: amine 2% w/w in dispersion, sealed vials 60° C. five days, control without amine 2.63

Row | SMILES | % NFA (as a % of saxagliptin peak) [1] | % NFA (as a % of saxagliptin peak) [2] | extraneous peaks in the chromatogram ([2]; saxagliptin and saxagliptin hydrochloride Opadry II films, HPLC) | % NFA (as a % of saxagliptin peak) [3] | % NFA (as a % of saxagliptin peak) [4] | protecting saxagliptin from reaction with formyl species (rank among amino acids) ([2]; saxagliptin and saxagliptin hydrochloride Opadry II films)
1 | N=C(N)NCCC[C@H](N)C(=O)O [Arginine, arginine] | 0% | 0% | formation of extraneous unidentified peaks | – | – | –
2 | OCCNCCO [Diethanolamine, diethanolamine] | – | – | – | 0.62% | 3.61% | –
3 | NCCO [Ethanolamine, ethanolamine] | – | – | – | 0% | 0% | –
4 | NCC(=O)O [Glycine, glycine] | 0% | 0% | – | – | – | most potent
5 | N[C@@H](Cc1c[nH]cn1)C(=O)O [Histidine, histidine] | – | 1.68% | – | – | – | –
6 | NCCCC[C@H](N)C(=O)O [Lysine, lysine] | 2.08% | 2.84% | – | – | – | –

Source: patent US20140079778A1, “Pharmaceutical Formulations Including An Amine Compound” (AstraZeneca UK Limited, priority 2011, published 2014)
